PMC9682480, ““Vermellogens” and the Development of CB[8]-Based Supramolecular Switches Using pH-Responsive and Non-Toxic Viologen Analogues” (Journal of the American Chemical Society, 2022)
Blank lines part the entries; values can stand above or below the molecule they belong to.

Assays:
[1] = pKa determination by UV–vis acid–base titrations in water; format: physicochemical; settings: for pKa value (linear fitting of pH against log absorbance ratio): 20 μM chloride salt in NaH2PO4/Na2HPO4, KHCO3/K2CO3 and Na2HPO4/Na2PO4 buffers, supplement; for pKa: aqueous phosphate and carbonate buffers, RH^2+/R^+ or MH^+/M, UV–vis titrations in water, chloride salts
From the text: Next, in our study of the stimuli-responsiveness of the “vermellogens”, we proceeded to verify the new analogues as pH-based molecular switches, by conducting UV–vis acid–base titrations in water for the compounds Ra–eH·2Cl. All the new “vermellogens” show similar π–π* main absorption bands centered at λ^1max = 366–377 nm at neutral or slightly acidic pH. An increase in the basicity of the solution produces the decrease of the aforementioned bands and the concomitant rise of new absorptions associated with the deprotonated compounds and centered at λ^2max = 460–475 nm. The pKa values obtained by the aforementioned UV–vis titrations for Ra–eH·2Cl are quite similar, showing no dependence on the substituent on the pyridinium N^+ atoms within their structures (Table 1 and Figures S115–S125). Furthermore, to evaluate the effect of the two different pyridinium heterocycles on the observed anomalous pKa’s, two analogues were prepared (Ma–bH·Cl), in which one of these moieties was substituted by a neutral phenyl ring.
4.2. pK a determination for Rb by UV-Vis
(§1) Figure S 116: UV-Vis spectra for the titration of R b·2Cl at 20 μM in NaH 2PO4/Na2HPO4, KHCO3/K2CO3 and Na2HPO4/Na2PO4 buffers. On the top right: Absorption of R b+ at λ = 474 nm plotted against pH. pH V (mL) of V (mL) of V (mL) of V (mL) of V (mL) of ABS log[A474-(measured) solution A solution B solution C solution D solution E (474 ARb2+)/(ARb1+- […]
(§2) Table S 4: Experimental data obtained for the UV-Vis titration of R b·2Cl at 20 μM in NaH2PO4/Na2HPO4, KHCO3/K2CO3 and Na2HPO4/Na2PO4 buffer. Solution A: 20 μM of R b·2Cl and 0.05 M of NaH2PO4. Solution B: 20 μM of R b·2Cl and 0.05 M of NaHPO4. Solution C: 20 μM of R b·2Cl and 0.05 M of Na2PO4. Solution D: 20 μM of R b·2Cl and 0.05 M of KHCO3. Solution E: 20 μM of R b·2Cl and 0.05 M of […]
4.4. pK a determination for Rc by UV-Vis
as §1, with “119:” for “116:”, “c·2Cl” for “b·2Cl”, “c+” for “b+”, “466” for “474”, “log[A466-(measured)” for “log[A474-(measured)”, “(466 ARc2+)/(ARc+-” for “(474 ARb2+)/(ARb1+-”
Table S 5: Experimental data obtained for the UV-Vis titration of R c·2Cl at 20 μM in NaH2PO4/Na2HPO4, KHCO3/K2CO3 and Na2HPO4/Na2PO4 buffer. Solution A: 20 μM of Rc·2Cl and 0.05 M of NaH2PO4. Solution B: 20 μM of R c·2Cl and 0.05 M of NaHPO4. Solution C: 20 μM of R c·2Cl and 0.05 M of Na2PO4. Solution D: 20 μM of R c·2Cl and 0.05 M of KHCO3. Solution E: 20 μM of R c·2Cl and 0.05 M of […]
4.6. pK a determination for Rd by UV-Vis
as §1, with “122:” for “116:”, “d·2Cl” for “b·2Cl”, “d+” for “b+”, “475” for “474”, “log[A475-(measured)” for “log[A474-(measured)”, “(475 ARd2+)/(ARd1+-” for “(474 ARb2+)/(ARb1+-”
as §2, with “6:” for “4:”, “d·2Cl” for “b·2Cl”
4.8. pK a determination for Re by UV-Vis
as §1, with “125:” for “116:”, “e·2Cl” for “b·2Cl”, “e+” for “b+”, “460” for “474”, “log[A460-(measured)” for “log[A474-(measured)”, “(460 ARe2+)/(ARe1+-” for “(474 ARb2+)/(ARb1+-”
Table S 7: Experimental data obtained for the UV-Vis titration of R e·2Cl at 20 μM in NaH2PO4/Na2HPO4, KHCO3/K2CO3 and Na2HPO4/Na2PO4 buffer. Solution A: 20 μM of R e·2Cl and 0.05 M of […]

HFF-1 cells = assay: Cell viability assay (WST-1) in human fibroblastic cell line; format: cell-based
Procedure: To conclude with this part of our work on the molecular responsiveness of the “vermellogens,” we decided to substantiate whether the bis-pyridinium core in the compounds would have or not a viologen-like reversible redox behavior. Thus, cyclic voltamograms were recorded for RaH·2Cl (2 mM) in buffered aqueous solutions at pH = 2 (0.05 M H3PO4/NaH2PO4), 7 (0.05 M NaH2PO4/Na2HPO4), and 12 (0.05 M Na2HPO4/Na3PO4). Those shown both the acidic (RaH^2+) and basic (Ra^+) forms of the “red thread” owning non-reversible redox peaks (Figure 1b).
Fibroblast cells (HFF-1; ATTC® SCRC-1041TM) were maintained in Dulbecco’s modified eagle’s medium (DMEM) supplemented with 10% FBS and 1% P/S and kept at 37 °C in a humidified atmosphere containing 5% CO2 until their use. HFF-1 cells were seeded in 96 well-plates at an initial density of 10^4 cells/well and allowed to attach for 24 h at 37 °C. The following day, culture medium was removed, replenished by fresh medium (90 µl) and cells were exposed to different concentration of R aH·2Cl and MV (10 µl; final concentrations 0.01, 0.05, 0.1, 0.5 and 1 mM). Control conditions included cells cultured in culture medium, but in absence of compound. Cells were further incubated for 24 h at 37°C and cell viability was monitored using the tetrazolium salt (WST-1) method.6 Absorbance at 450 nm was measured using a Synergy HTX Plate Reader (Biotek, Winooski, VT, USA) and the percent of cell viability (%) was calculated as follows:
Viability (%) = […]
Where Asample and Anegative control depict those absorbance values measured at 450 nm in presence and in absence of compound, respectively. All conditions were tested by triplicate in two independent experiments. Data were expressed as mean ± standard deviation (SD). Statistical analysis was performed by two-ways and one-way ANOVA with Tukey’s LSD post hoc test using IBM SPSS Statistics version 23. A p ≤ 0.05 was considered statistically significant.
Figure S 138: Compounds tested in WST-1 assay for cell viability.
6 Carballo-Pedrares, N.; Kattar, A.; Concheiro, A.; Alvarez-Lorenzo, C.; Rey-Rico, Niosomes-based gene delivery systems for effective transfection of human mesenchymal stem cells. A. Matter. Sci. Eng. 2021, 18, 112307.

[2] = Halide recognition by UV–vis titration in acetonitrile (TBACl); format: binding
From the text: (§3) Finally, diffraction-grade single crystals for RaH·2Cl could be obtained, with the solid-state structure showing hydrogen bonding between the hydrazone moiety with a chloride counterion and a crystallization water (Figure 1a).[34] Moved by this observation, and other reported evidence regarding the anion binding abilities of this type of hydrazone moieties,[30],[35] we decided to study the ability of the “red thread” RaH^2+ to recognize halide anions in acetonitrile by UV–vis titrations and ^1H-NMR. […] Conversely, the addition of increasing amounts of TBACl/Br to 33–20 μM solutions of RaH·2PF6, led to the absorption bands associated with the free form of RaH^2+ at λmax = 370 nm, decreasing in favor of new bands with a slight shift to λmax = 378 and 370 nm, tentatively assigned to RaH^2+···Cl/Br complexes and with the data fitting appropriately to 1:1 association processes (Ka = (7.03 ± 0.14)·10^4 M^–1 for Cl^–, (1.41 ± 0.07)·10^4 M^–1 for Br^–). […]
(§4) NMR titrations could not be performed due to the precipitation of R aH2+ upon 2 eqv. of the corresponding salt. Spectra were recorded at 0, 0.5, 1, 2 and 4 eq. of the corresponding salt to follow the chemical shift of the […]
(§5) Concentration (μM) Absorbance Residual […]

[3] = Fluoride interaction by UV–vis titration in acetonitrile (TBAF); format: binding; settings: 1 μM, 2:1 process
From the text: (§6) Finally, diffraction-grade single crystals for RaH·2Cl could be obtained, with the solid-state structure showing hydrogen bonding between the hydrazone moiety with a chloride counterion and a crystallization water (Figure 1a).[34] Moved by this observation, and other reported evidence regarding the anion binding abilities of this type of hydrazone moieties,[30],[35] we decided to study the ability of the “red thread” RaH^2+ to recognize halide anions in acetonitrile by UV–vis titrations and ^1H-NMR. […] Conversely, the addition of increasing amounts of TBACl/Br to 33–20 μM solutions of RaH·2PF6, led to the absorption bands associated with the free form of RaH^2+ at λmax = 370 nm, decreasing in favor of new bands with a slight shift to λmax = 378 and 370 nm, tentatively assigned to RaH^2+···Cl/Br complexes and with the data fitting appropriately to 1:1 association processes (Ka = (7.03 ± 0.14)·10^4 M^–1 for Cl^–, (1.41 ± 0.07)·10^4 M^–1 for Br^–). In both cases, the results agreed with those expected for the recognition through hydrogen bonding between the hydrazone group and the anions, resulting in a bathochromic shift of the absorption band.[30],[35] […]
as §4

[4] = Halide recognition by UV–vis titration in acetonitrile (TBABr); format: binding
From the text: as §3, §4, §5

[5] = Halide recognition in acetonitrile (iodide); format: binding; settings: UV–vis titrations and 1H-NMR
From the text: as §6, §4

- pKa [1]: 8.6
SMILES: C[n+]1ccc(/C=N/Nc2cc[n+](Cc3ccccc3)cc2)cc1 [RdH·2X]

- pKa value (linear fitting of pH against log absorbance ratio) [1]: 8.6
- pKa [1]: 8.7
SMILES: C[n+]1ccc(N/N=C/c2cc[n+](Cc3ccccc3)cc2)cc1 [RcH·2X]

Continued, molecule first:

SMILES: C(=N\Nc1cc[n+](Cc2ccccc2)cc1)/c1cc[n+](Cc2ccccc2)cc1 [RbH·2X]
- pKa value (linear fitting of pH against log absorbance ratio) [1]: 8.6
- pKa [1]: 8.6

SMILES: C/C(=N\Nc1cc[n+](C)cc1)c1cc[n+](C)cc1 [ReH·2X]
- pKa [1]: 9.6

SMILES: C[n+]1ccc(-c2cc[n+](C)cc2)cc1 [MV^2+, paraquat, reference compound]
- decrease of cell survival percentages relative to RaH^2+ (HFF-1 cells; HFF-1, from 0.5 mM): ~3 fold
- cell survival (HFF-1 cells; HFF-1, from 0.5 mM concentration, 24 h, WST-1): severe decrease in cell survival

SMILES: C[n+]1ccc(/C=N/Nc2cc[n+](C)cc2)cc1 [RaH·2PF6]
- Ka (1:1 association with Cl^–) [2]: (7.03 ± 0.14)·10^4 M^–1
- Ka1 (first F^– equivalent, interaction with hydrazone group) [3]: (4.49 ± 0.77)·10^7 M^–1
- Ka2 (deprotonation of the NH assisted by a second fluoride) [3]: (5.43 ± 0.59)·10^7 M^–1
- Ka (1:1 association with Br^–) [4]: (1.41 ± 0.07)·10^4 M^–1
- interaction with I^– [5]: no interaction
